From US10881698B2, “Diagnosis and treatment for respiratory tract diseases” (THE TRUSTEES OF THE UNIVERSITY OF PENNSYLVANIA, priority 2012, dated 2021)
Numbering of substitutions follows the chain as printed. Where “and” joins values, the source holds several entries; their conditions need not be identical. Equal entries are not always repeated. Where two headings read alike, the source gives them in different places.

Tests used:
[1] = tested on: sinonasal epithelial cells; experiment: DAF-FM NO production with quinine in PAV/AVI heterozygote sinonasal epithelial cells; assay type: cell-based, human
T2R38 [2] = experiment: DAF-FM imaging of NO production in human sinonasal ALI cultures; assay type: cell-based; conditions: for DAF-FM fluorescence increase: 5 min, PAV/AVI
T2R38 [3] = target: T1, T2R38 (Homo sapiens, UniProt P59533, A49P/I296V); experiment: as above; assay type: cell-based; conditions: for DAF-FM fluorescence increase: 5 min, PAV/PAV
T1 construct: T2R38 is expressed in human upper airway epithelium; endogenous in cells; host or cells: primary human sinonasal epithelial cells, air-liquid interface cultures from surgical patients
T1 sequence (P59533 1-333 A49P/I296V): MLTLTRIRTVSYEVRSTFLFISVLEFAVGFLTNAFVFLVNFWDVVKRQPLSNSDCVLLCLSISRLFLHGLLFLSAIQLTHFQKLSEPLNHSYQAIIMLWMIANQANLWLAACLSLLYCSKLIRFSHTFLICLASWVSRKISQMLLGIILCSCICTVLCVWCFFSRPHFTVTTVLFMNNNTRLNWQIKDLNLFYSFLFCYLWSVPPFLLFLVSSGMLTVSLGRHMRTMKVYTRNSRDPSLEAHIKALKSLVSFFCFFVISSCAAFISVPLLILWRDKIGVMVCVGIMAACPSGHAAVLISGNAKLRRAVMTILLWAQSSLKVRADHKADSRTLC

beta-defensin 2 = experiment: Beta-defensin 2 secretion by sinonasal cultures; assay type: cell-based, human; conditions: denatonium- or absinthin-stimulated cultures
Pseudomonas aeruginosa [4] = tested on: Pseudomonas aeruginosa
nasal epithelial cells = experiment: Fluo-4 calcium signaling with denatonium in nasal epithelial cells (sinonasal ALI cultures); assay type: cell-based, human; conditions: non-T2R38 bitter agonists
T2R38 [5] = target: T2, T2R38 (Homo sapiens, UniProt P59533, A262V); experiment: DAF-FM imaging of NO production in human sinonasal ALI cultures; assay type: cell-based; conditions: for DAF-FM fluorescence increase: 5 min, AVI/AVI
T2 construct: T2R38 is expressed in human upper airway epithelium; endogenous in cells; host or cells: primary human sinonasal epithelial cells, air-liquid interface cultures from surgical patients
T2 sequence (P59533 1-333 A262V): T1 sequence (P59533 1-333 A49P/I296V) with P49A, A262V, V296I

T2R38 [6] = experiment: Fluo-4 Ca2+ imaging in primary human sinonasal ALI cultures; assay type: cell-based
Pseudomonas aeruginosa [7] = experiment: Kill assay with ASL from stimulated sinonasal ALI cultures (CFU plating); assay type: cell-based; conditions: ATP stimulation
sinonasal ALI cultures [8] = assay type: cell-based, human
T2R38 [9] = target: T1, T2R38; experiment: Fluo-4 Ca2+ imaging in primary human sinonasal ALI cultures; assay type: cell-based
T2R38 [10] = target: T2, T2R38; experiment: as above; assay type: cell-based; conditions: AVI/AVI
AVI-TAS2R38 = target: T3, AVI-TAS2R38 (Homo sapiens, UniProt P59533, A262V); experiment: Fluo-4 calcium mobilization in HEK293 cells expressing hTAS2R38 (AVI) and Gα16gustducin44; assay type: cell-based; conditions: 200 μM; AVI variant
T3 construct: first 45 amino acids of rat SSTR-3 (N); host or cells: HEK293 (peakRapid), transient transfection, pcDNA3.1(+)
T3 sequence (P59533 1-333 A262V): T1 sequence (P59533 1-333 A49P/I296V) with P49A, A262V, V296I

[11] = tested on: acutely dissociated sinonasal ciliated epithelial cells; experiment: Ca2+ and DAF-FM responses in acutely dissociated sinonasal ciliated cells; assay type: cell-based, human
PAV-TAS2R38 = target: T4, PAV-TAS2R38 (Homo sapiens, UniProt P59533, A49P/I296V); experiment: Fluo-4 calcium mobilization in HEK293 cells expressing hTAS2R38 (PAV) and Gα16gustducin44; assay type: cell-based; conditions: 200 μM; PAV variant
T4 construct: first 45 amino acids of rat SSTR-3 (N); host or cells: HEK293 (peakRapid), transient transfection, pcDNA3.1(+)
T4 sequence (P59533 1-333 A49P/I296V): T1 sequence (P59533 1-333 A49P/I296V)

sinonasal ALI cultures [12] = experiment: Mucociliary transport velocity of fluorescent microspheres on sinonasal ALI cultures; assay type: cell-based, human

With C=C[C@H]1C[N@@]2CC[C@H]1C[C@H]2[C@H](O)c1ccnc2ccc(OC)cc12 [quinine] the “NO production (increase in DAF-FM fluorescence)” value ([1]; apical application, PAV/AVI heterozygote cells) was “stimulated a robust NO production”.

For CC(=O)NC(C(=O)O)C(C)(C)SN=O (racemic) [SNAP, S-Nitroso-N-Acetyl-D,L-Penicillamine], the “DAF-FM responses between the genotypes (control stimuli)” value (T2R38 [2]; SNAP 100 μM, ionomycin) was “did not yield differential DAF-FM responses between the genotypes”.

With COc1ccc2c(c1)CC[C@@H]1[C@@H]2CC[C@]2(C)[C@@H](NCCCCCCN3C(=O)CCC3=O)CC[C@@H]12 [U73343] the “Effect on C4HSL-induced NO production in taster cultures” value (T2R38 [3]; C4HSL 200 μM, U73122 5 μM, 20 min pre-incubation) was “had no effect on NO production” and the “Effect on beta-defensin secretion” value (beta-defensin 2) was “had no effect”.

colistin sulfate was tested, and the “% green (viable) PAO1” value (Pseudomonas aeruginosa [4]) was 4±2%.

In the case of CC(C)[C@]12CC(=O)[C@H](C)[C@H]1C2 [thujone], the “Ca2+ responses in sinonasal ALI cultures” value (nasal epithelial cells) is reported as “not” and the “NO production with non-T2R38 bitter ligands” value (T2R38 [3]) is reported as “did not stimulate NO production”.

In the case of sodium thiocyanate [NaSCN], the “DAF-FM fluorescence increase after 5 min NaSCN” value (T2R38 [3]) is reported as 202±38 units, the “DAF-FM fluorescence increase after 5 min NaSCN” value (T2R38 [5]) is reported as 61±23 units and the “F/Fo after stimulation with 5 mM NaSCN” value (T2R38 [6]; +L-NAME (50 μM)) is reported as 1.24±0.07. The “F/Fo after stimulation with 5 mM NaSCN” value (T2R38 [6]; control (no L-NAME)) was 1.33±0.08.

With Nc1ncnc2c1ncn2[C@@H]1O[C@H](COP(=O)(O)OP(=O)(O)OP(=O)(O)O)[C@@H](O)[C@H]1O [ATP] the “Bactericidal response on stimulation of cells” value (Pseudomonas aeruginosa [7]) was “no bactericidal response was observed”, the “Peak CBF after ATP stimulation between genotypes” value (sinonasal ALI cultures [8]) was “not significantly different between cultures of different genotypes” and the “Peak F/Fo during stimulation with 1 μM ATP” value (T2R38 [6]; L-NAME (50 μM)) was 2.0±0.26. The “Peak F/Fo during stimulation with 1 μM ATP” value (T2R38 [6]; control (no L-NAME)) was 1.9±0.21, the “ATP-induced Ca2+ responses versus TAS2R38 genotype” value (T2R38 [6]; ATP 1 μM, PAV/PAV, PAV/AVI, AVI/AVI cultures) was “did not correlate with TAS2R38 genotype” and the “Peak Fluo-4 F/Fo during 10 μM ATP stimulation” value (T2R38 [9]; PAV/PAV) was 2.96±0.08. For the same compound, the “Peak Fluo-4 F/Fo during 10 μM ATP stimulation” value (T2R38 [9]; PAV/PAV+U73122) was 2.82±0.1 and the “Peak Fluo-4 F/Fo during 10 μM ATP stimulation” value (T2R38 [10]; 10 μM ATP) was 2.90±0.09.

With CCCC(=O)N[C@H]1CCOC1=O [C4HSL, N-butyryl-L-homoserine lactone] the “Peak Fluo-4 fluorescence (ΔF/F)” value (AVI-TAS2R38) was 0.3±0.4%, the “Ca2+ responses in acutely dissociated sinonasal ciliated cells” value [11] was “occurred” and the DAF-FM fluorescence increase (T2R38 [2]; 10 μM) was 68±6. The DAF-FM fluorescence increase (T2R38 [2]; 100 μM) was 130±17, the DAF-FM fluorescence increase (T2R38 [3]; 10 μM) was 132±14 and the DAF-FM fluorescence increase (T2R38 [3]; 100 μM) was 230±30. The DAF-FM fluorescence increase (T2R38 [5]; 10 μM) was 50±2, the DAF-FM fluorescence increase (T2R38 [5]; 100 μM) was 69±8 and the “Peak Fluo-4 fluorescence (ΔF/F)” value (PAV-TAS2R38) was 61±2%. The Increase in velocity (sinonasal ALI cultures [12]; 0.1 μM, PAV/PAV) was 1.07±0.02, the Increase in velocity (sinonasal ALI cultures [12]; 1 μM, PAV/PAV) was 1.12±0.03 and the Increase in velocity (sinonasal ALI cultures [12]; 10 μM, PAV/PAV) was 1.21±0.04. The Increase in velocity (sinonasal ALI cultures [12]; 100 μM, AVI/AVI) was 1.12±0.03, the Increase in velocity (sinonasal ALI cultures [12]; 100 μM, PAV/PAV) was 1.47±0.07 and the “Concentration required to stimulate a significant increase in mucociliary transport” value (sinonasal ALI cultures [12]; PAV/PAV cultures) was 10 µM. For the same compound, the “Peak CBF with C4HSL” value (sinonasal ALI cultures [8]) was 1.17±0.02 and 1.02±0.02, the “Fluo-4 fluorescence after 5 min C4HSL” value (T2R38 [6]; 200 μM C4HSL, PAV/AVI) was 1.14±0.04 and the “Fluo-4 fluorescence after 5 min C4HSL” value (T2R38 [9]; 200 μM C4HSL, PAV/PAV) was 1.29±0.03. The “Fluo-4 fluorescence after 5 min C4HSL” value (T2R38 [10]; 200 μM C4HSL) was 1.10±0.04.

COC(=O)[C@@H](N)CCCNC(=N)N[N+](=O)[O-] [L-NAME, L-N^G-Nitroarginine methyl ester] was tested, and the “Effect on NaSCN-activated DAF-FM fluorescence” value (T2R38 [2]) was “blocked”, the “Effect on C4HSL-induced NO production in taster cultures” value (T2R38 [3]) was “represses the NO production” and the “% green (viable) PAO1” value (Pseudomonas aeruginosa [4]) was 90±2%. The “Effect on CBF increase in response to 6.25% PAO1 supernatant” value (sinonasal ALI cultures [8]) was “significantly inhibited”, the “Effect on HSL-stimulated CBF increase” value (sinonasal ALI cultures [8]) was “blocked” and the “Effect on quinine-stimulated NO production” value ([1]; L-NAME 20 μM) was “inhibited”.

COC(=O)[C@H](N)CCCN=C(N)N[N+](=O)[O-] [D-NAME] was tested, and the “Effect on HSL-stimulated CBF increase” value (sinonasal ALI cultures [8]) was “not”.
